From ChEMBL document CHEMBL1201862, “PubChem BioAssay data set” (2004) come the findings set out here.

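Dose response: 5 concentrations. Exposure: 48 h. Format: 96-well plates. Endpoint: linear interpolation; highest concentration if not reached. At the GI50, growth is halved.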 Active and inactive are the calls of the source. No stated cut-off is given here; in the data, active = GI50 up to about 1.1 µM and inactive = higher. Where only a bound is given, the exact number is not on record here.

Among the test systems are 786-0; A549; DMS-273; HCT-15; Malme-3M; NCI-H226; NCI-H460; NCI-H522; OVCAR-5; OVCAR-8; SF-295; SNB-19; SNB-75; SW-620; UACC-62; UO-31; HOP-62; SR.
Experiment in all cases: NCI anticancer screen, dose series, 48 h

Regarding `O=C(O)CCCNS(=O)(=O)c1ccc2ccccc2c1`, the GI50 in the test with 786-0 is > 100 µM (inactive); with A549, > 100 µM (inactive); with DMS-273 it was > 100 µM (inactive); in the test with HCT-15, more than 100 µM; with Malme-3M, > 100 µM (inactive); in the test on NCI-H226, > 100 µM (inactive). For the same molecule, the GI50 in the test on NCI-H460, with NCI-H522, in the test on OVCAR-5, in the test on OVCAR-8, in the test with SF-295 and in the test with SNB-19 was > 100 µM (inactive) throughout. In addition, the GI50 in the test on SNB-75, in the test with SW-620, in the test with UACC-62 and with UO-31 was > 100 µM (inactive) throughout.

On to `COC(=O)C(Cc1cc(OC)c(OC)c(OC)c1)(NC(=O)c1ccccc1)P(=O)(OC)OC` (configuration not stated), for which the GI50 in the test on A549 was > 100 µM (inactive); with DMS-273 it was > 100 µM (inactive); with HCT-15, more than 100 µM; in the test on HOP-62, > 100 µM (inactive); in the test on NCI-H226, > 100 µM (inactive); with NCI-H460, > 100 µM (inactive). The GI50 in the test on NCI-H522, in the test with OVCAR-5, with OVCAR-8, in the test on SF-295, in the test with SNB-19 and in the test with SNB-75 was > 100 µM (inactive) throughout. The GI50 in the test with SR, in the test with SW-620, with UACC-62 and with UO-31 was > 100 µM (inactive) throughout.

Take `O=C(CC1OC(O)C(Cl)=C1Cl)c1cccnc1` (configuration not stated): the GI50 in the test with 786-0 was > 41.5 µM (inactive); in the test with A549, > 100 µM (inactive); in the test on DMS-273 it was > 53 µM (inactive); in the test with HCT-15, more than 41.1 µM; with HOP-62 it was > 50.2 µM (inactive); in the test with Malme-3M it was > 100 µM (inactive). Also, the GI50 is > 100 µM (inactive) in the test on NCI-H226; > 73.5 µM (inactive) in the test on NCI-H460; > 100 µM (inactive) in the test on NCI-H522; > 100 µM (inactive) in the test with OVCAR-5; > 100 µM (inactive) in the test with OVCAR-8; > 100 µM (inactive) with SF-295. The GI50 with SNB-19, with SNB-75, with SR, with UACC-62 and with UO-31 was > 100 µM (inactive) each time.

On to `COC(=O)[C@]12CC=C3O[C@@H]4OC5(CCCCC5)O[C@@H]4C3[C@@H]1C(=O)CCC2=O` (some centres not stated), for which the GI50 is > 100 µM (inactive) in the test on 786-0; > 100 µM (inactive) in the test with A549; > 100 µM (inactive) in the test with DMS-273; more than 100 µM in the test on HCT-15; > 100 µM (inactive) in the test with HOP-62; > 100 µM (inactive) in the test with Malme-3M. For the same molecule, the GI50 in the test with NCI-H226 was > 100 µM (inactive); with NCI-H460, > 100 µM (inactive); in the test on NCI-H522 it was 83.4 µM (inactive); in the test on OVCAR-5, > 100 µM (inactive); with OVCAR-8 it was > 100 µM (inactive); in the test on SF-295, > 100 µM (inactive). The GI50 in the test on SNB-19, in the test with SNB-75, with SW-620, in the test on UACC-62 and in the test with UO-31 was > 100 µM (inactive) throughout.

`O=C(c1cc2c(C(F)(F)F)onc2c2ccccc12)C(F)(F)F`: the GI50 was 1.93 µM (inactive) with 786-0; 4.51 µM (inactive) with A549; 1.49 µM (inactive) with DMS-273; 0.741 µM in the test on HCT-15; 2.44 µM (inactive) with HOP-62; 3.01 µM (inactive) in the test with NCI-H226. Also, the GI50 with NCI-H460 is 1.24 µM (inactive); in the test on NCI-H522 it was 1.78 µM (inactive); in the test with OVCAR-5, 6.9 µM (inactive); with OVCAR-8, 1.78 µM (inactive); with SF-295 it was 2.58 µM (inactive); in the test on SNB-19, 3.8 µM (inactive). Further, the GI50 in the test with SNB-75 was 1.16 µM (inactive); with SR it was 1.41 µM (inactive); with SW-620, 2.68 µM (inactive); in the test on UACC-62, 2.98 µM (inactive); in the test on UO-31 it was 1.7 µM (inactive).

Regarding `CCN(CC)c1ccc2c(c1)Nc1cc(=C(C#N)C#N)c3ccccc3c1=N2`, the GI50 in the test with 786-0, in the test with A549, in the test with DMS-273, with HOP-62, in the test on Malme-3M and in the test with NCI-H226 was > 100 µM (inactive) each time. The GI50 was 95.3 µM (inactive) in the test on NCI-H460; > 100 µM (inactive) with NCI-H522; > 100 µM (inactive) in the test on OVCAR-5; 61 µM (inactive) in the test with OVCAR-8; > 100 µM (inactive) in the test with SF-295; > 100 µM (inactive) in the test on SNB-19. Moreover, the GI50 is > 100 µM (inactive) in the test with SNB-75; > 100 µM (inactive) in the test on SR; 59 µM (inactive) with SW-620; > 100 µM (inactive) in the test on UACC-62; > 100 µM (inactive) in the test with UO-31.

As to `CC(=O)NC1C(O)CC(OCCCSCCN)(C(=O)O)OC1C(O)C(O)CO` (configuration not stated), the GI50 in the test with A549 was > 100 µM (inactive); in the test on DMS-273, > 100 µM (inactive); in the test with HCT-15 it was more than 100 µM; with Malme-3M, > 100 µM (inactive); in the test with NCI-H226, > 100 µM (inactive); in the test on NCI-H460, > 100 µM (inactive). Also, the GI50 in the test on OVCAR-5, in the test with OVCAR-8, in the test with SF-295, with SNB-19, in the test on SNB-75 and in the test on SR was > 100 µM (inactive) throughout. In addition, in the test with SW-620, the GI50 was > 100 µM (inactive).

With `OCC#CCNCl`, the GI50 was > 100 µM (inactive) in the test on A549; > 100 µM (inactive) in the test with DMS-273; more than 100 µM in the test with HCT-15; > 100 µM (inactive) with HOP-62; > 100 µM (inactive) with Malme-3M; > 100 µM (inactive) in the test on NCI-H226. Also, the GI50 in the test with NCI-H460, with NCI-H522, with OVCAR-5, in the test with OVCAR-8, in the test on SF-295 and in the test on SNB-19 was > 100 µM (inactive) in each case. Besides, the GI50 with SNB-75, in the test with SW-620, in the test on UACC-62 and in the test on UO-31 was > 100 µM (inactive) throughout.

With `O=C1C2CN(Cc3ccccc3)CC1CN(CC1CC1)C2`, the GI50 is > 100 µM (inactive) in the test on 786-0; > 100 µM (inactive) in the test on A549; > 100 µM (inactive) with DMS-273; more than 100 µM in the test on HCT-15; > 100 µM (inactive) with HOP-62; > 100 µM (inactive) in the test with Malme-3M. Moreover, the GI50 with NCI-H226, in the test with NCI-H460, in the test with NCI-H522, in the test on OVCAR-5, in the test with OVCAR-8 and in the test on SF-295 was > 100 µM (inactive) each time. The GI50 in the test on SNB-19, in the test on SNB-75, in the test with SW-620, in the test with UACC-62 and in the test with UO-31 was > 100 µM (inactive) each time.

Take `CC(=O)OCCOCNC(=S)N/N=C/c1ccc([N+](=O)[O-])o1`: the GI50 was > 100 µM (inactive) with 786-0; 63.5 µM (inactive) in the test with A549; 37.9 µM (inactive) in the test with DMS-273; 52.6 µM with HCT-15; > 100 µM (inactive) in the test with HOP-62; 94.8 µM (inactive) with Malme-3M. Moreover, the GI50 was 98.4 µM (inactive) with NCI-H226; 28.7 µM (inactive) in the test with NCI-H460; 64.4 µM (inactive) with NCI-H522; > 100 µM (inactive) with OVCAR-5; 77.3 µM (inactive) in the test on OVCAR-8; 40.6 µM (inactive) in the test on SF-295. Also, the GI50 is > 100 µM (inactive) in the test with SNB-19; > 100 µM (inactive) in the test with SNB-75; 34.5 µM (inactive) in the test on SW-620; 18.5 µM (inactive) in the test on UACC-62; > 100 µM (inactive) in the test on UO-31.

As for `COc1ccccc1NC(=O)C1=C(C)NC(C)=C(C(=O)Nc2ccccc2OC)C1c1ccc(C(C)C)cc1`, the GI50 with 786-0 is > 100 µM (inactive); with A549, 40.1 µM (inactive); with DMS-273 it was 59.7 µM (inactive); in the test with HCT-15, more than 100 µM; with HOP-62, > 100 µM (inactive); in the test on Malme-3M it was 67.6 µM (inactive). Further, the GI50 was > 100 µM (inactive) in the test with NCI-H226; 61.1 µM (inactive) in the test with NCI-H460; > 100 µM (inactive) in the test with OVCAR-5; > 100 µM (inactive) with OVCAR-8; > 100 µM (inactive) with SF-295; > 100 µM (inactive) in the test on SNB-19. Besides, the GI50 was 27 µM (inactive) in the test with SNB-75; 15.5 µM (inactive) with SR; > 100 µM (inactive) in the test with SW-620; > 100 µM (inactive) with UACC-62; 29 µM (inactive) in the test on UO-31.

For the molecule `CS(=O)(=O)N(N(CCCl)S(=O)(=O)c1ccccc1)S(C)(=O)=O`, the GI50 with 786-0 was 44.7 µM (inactive); in the test with A549 it was > 100 µM (inactive); in the test with DMS-273, > 100 µM (inactive); in the test with HCT-15, more than 100 µM; in the test on HOP-62, > 100 µM (inactive); in the test with Malme-3M, > 100 µM (inactive). For the same molecule, the GI50 was > 100 µM (inactive) with NCI-H226; 86.1 µM (inactive) in the test on NCI-H460; > 100 µM (inactive) in the test with NCI-H522; > 100 µM (inactive) in the test with OVCAR-8; 88.9 µM (inactive) in the test with SF-295; 67.9 µM (inactive) in the test on SNB-19. In addition, the GI50 in the test on SNB-75 is 50.8 µM (inactive); with SR, > 100 µM (inactive); in the test on SW-620, > 100 µM (inactive); in the test on UACC-62 it was > 100 µM (inactive); with UO-31, 76.7 µM (inactive).
